Experimental data: ChEMBL document CHEMBL4229455, “Synthesis and anticancer activity of novel bisindolylhydroxymaleimide derivatives with potent GSK-3 kinase inhibition” (Bioorg Med Chem, 2018)

Key:
Assay type in all cases: functional
MDA-MB-435 = experiment: Cytotoxicity against human MDA-MB-435 cells assessed as cell growth at 1 uM after 48 hrs by SRB assay relative to control; details: MDA-MB-435, 48 h, read-out: Activity
SK-MEL-5 = experiment: Cytotoxicity against human SK-MEL-5 cells assessed as cell growth at 0.1 uM after 48 hrs by SRB assay relative to control; details: SK-MEL-5, 48 h, read-out: Activity
NCI/ADR-RES = experiment: Cytotoxicity against human NCI-ADR-RES cells assessed as cell growth at 0.1 uM after 48 hrs by SRB assay relative to control; details: read-out: Activity
HL-60(TB) = experiment: Cytotoxicity against human HL-60(TB) cells assessed as cell growth at 1 uM after 48 hrs by SRB assay relative to control; details: HL-60, 48 h, read-out: Activity
HCT-116 [1] = experiment: Cytotoxicity against human HCT116 cells assessed as cell growth at 1 uM after 48 hrs by SRB assay relative to control; details: HCT-116, 48 h, read-out: Activity
786-0 [2] = experiment: Cytotoxicity against human 786-O cells assessed as cell growth at 100 uM after 48 hrs by SRB assay relative to control; details: 786-0, 48 h, read-out: Activity
OVCAR-3 = experiment: Cytotoxicity against human OVCAR3 cells after 48 hrs by SRB assay; details: OVCAR-3, 48 h
SF-539 = experiment: Cytotoxicity against human SF539 cells assessed as cell growth at 0.01 uM after 48 hrs by SRB assay relative to control; details: SF-539, 48 h, read-out: Activity
COLO 205 [3] = experiment: Cytotoxicity against human COLO205 cells assessed as cell growth at 1 uM after 48 hrs by SRB assay relative to control; details: COLO 205, 48 h, read-out: Activity
SR [4] = experiment: Cytotoxicity against human SR cells assessed as cell growth at 100 uM after 48 hrs by SRB assay relative to control; details: read-out: Activity
A498 = experiment: Cytotoxicity against human A498 cells assessed as cell growth at 100 uM after 48 hrs by SRB assay relative to control; details: A498, 48 h, read-out: Activity
CAKI-1 = experiment: Cytotoxicity against human Caki1 cells assessed as cell growth at 100 uM after 48 hrs by SRB assay relative to control; details: CAKI-1, 48 h, read-out: Activity
NCI-H23 [5] = experiment: Cytotoxicity against human NCI-H23 cells assessed as cell growth at 1 uM after 48 hrs by SRB assay relative to control; details: NCI-H23, 48 h, read-out: Activity
BT-549 = experiment: Cytotoxicity against human BT549 cells after 48 hrs by SRB assay; details: BT-549, 48 h
OVCAR-8 [6] = experiment: Cytotoxicity against human OVCAR8 cells assessed as cell growth at 0.1 uM after 48 hrs by SRB assay relative to control; details: OVCAR-8, 48 h, read-out: Activity
HCC 2998 [7] = experiment: Cytotoxicity against human HCC2998 cells assessed as cell growth at 0.1 uM after 48 hrs by SRB assay relative to control; details: HCC 2998, 48 h, read-out: Activity
SR [8] = experiment: Cytotoxicity against human SR cells assessed as cell growth at 0.1 uM after 48 hrs by SRB assay relative to control; details: read-out: Activity
SNB-19 = experiment: Cytotoxicity against human SNB19 cells after 48 hrs by SRB assay; details: SNB-19, 48 h
SF-268 = experiment: Cytotoxicity against human SF268 cells assessed as cell growth at 0.01 uM after 48 hrs by SRB assay relative to control; details: SF-268, 48 h, read-out: Activity
NCI-H23 [9] = experiment: Cytotoxicity against human NCI-H23 cells assessed as cell growth at 0.1 uM after 48 hrs by SRB assay relative to control; details: NCI-H23, 48 h, read-out: Activity
MCF7 = experiment: Cytotoxicity against human MCF7 cells after 48 hrs by SRB assay; details: MCF7, 48 h
SK-MEL-2 = experiment: Cytotoxicity against human SK-MEL-2 cells assessed as cell growth at 1 uM after 48 hrs by SRB assay relative to control; details: SK-MEL-2, 48 h, read-out: Activity
Hs-578T = experiment: Cytotoxicity against human Hs 578T cells assessed as cell growth at 0.01 uM after 48 hrs by SRB assay relative to control; details: read-out: Activity
MDA-MB-231 = experiment: Cytotoxicity against human MDA-MB-231 cells assessed as cell growth at 0.01 uM after 48 hrs by SRB assay relative to control; details: MDA-MB-231, 48 h, read-out: Activity
SNB-75 = experiment: Cytotoxicity against human SNB75 cells assessed as cell growth at 100 uM after 48 hrs by SRB assay relative to control; details: SNB-75, 48 h, read-out: Activity
T47D = experiment: Cytotoxicity against human T47D cells assessed as cell growth at 100 uM after 48 hrs by SRB assay relative to control; details: read-out: Activity
HOP-92 = experiment: Cytotoxicity against human HOP92 cells assessed as cell growth at 100 uM after 48 hrs by SRB assay relative to control; details: HOP-92, 48 h, read-out: Activity
COLO 205 [10] = experiment: Cytotoxicity against human COLO205 cells assessed as cell growth at 0.1 uM after 48 hrs by SRB assay relative to control; details: COLO 205, 48 h, read-out: Activity
M14 = experiment: Cytotoxicity against human M14 cells assessed as cell growth at 0.01 uM after 48 hrs by SRB assay relative to control; details: M14, 48 h, read-out: Activity
HCC 2998 [11] = experiment: Cytotoxicity against human HCC2998 cells assessed as cell growth at 1 uM after 48 hrs by SRB assay relative to control; details: HCC 2998, 48 h, read-out: Activity
786-0 [12] = experiment: Cytotoxicity against human 786-O cells assessed as cell growth at 0.1 uM after 48 hrs by SRB assay relative to control; details: 786-0, 48 h, read-out: Activity
OVCAR-8 [13] = experiment: Cytotoxicity against human OVCAR8 cells assessed as cell growth at 0.01 uM after 48 hrs by SRB assay relative to control; details: OVCAR-8, 48 h, read-out: Activity
K562 = experiment: Cytotoxicity against human K562 cells after 48 hrs by SRB assay; details: K562, 48 h
HCT-116 [14] = experiment: Cytotoxicity against human HCT116 cells after 48 hrs by SRB assay; details: HCT-116, 48 h
UO-31 = experiment: Cytotoxicity against human UO31 cells assessed as cell growth at 0.01 uM after 48 hrs by SRB assay relative to control; details: UO-31, 48 h, read-out: Activity
TK-10 = experiment: Cytotoxicity against human TK10 cells assessed as cell growth at 0.1 uM after 48 hrs by SRB assay relative to control; details: TK-10, 48 h, read-out: Activity
NCI-H460 = experiment: Cytotoxicity against human NCI-H460 cells assessed as cell growth at 1 uM after 48 hrs by SRB assay relative to control; details: NCI-H460, 48 h, read-out: Activity

N#CCCCCCn1cc(C2=C(c3cn(CCCCCC#N)c4ccccc34)C(=O)N(O)C2=O)c2ccccc21
growth at 1 µM (MDA-MB-435): 96%
growth at 0.1 µM (SK-MEL-5): 99%
growth at 0.1 µM (NCI/ADR-RES): 92%
growth at 1 µM (HL-60(TB)): 100%
growth at 1 µM (HCT-116 [1]): 98%
growth at 100 µM (786-0 [2]): 6%
GI50 (OVCAR-3): 3.81 µM
LC50 (OVCAR-3): > 100 µM
TGI (OVCAR-3): 19 µM
growth at 0.01 µM (SF-539): 94%
growth at 1 µM (COLO 205 [3]): 97%
growth at 100 µM (SR [4]): -14%
growth at 100 µM (A498): -1%
growth at 100 µM (CAKI-1): 16%
growth at 1 µM (NCI-H23 [5]): 94%
GI50 (BT-549): 3.44 µM
LC50 (BT-549): > 100 µM
TGI (BT-549): 24.5 µM
growth at 0.1 µM (OVCAR-8 [6]): 99%
growth at 0.1 µM (HCC 2998 [7]): 101%
growth at 0.1 µM (SR [8]): 100%
GI50 (SNB-19): 4.36 µM
LC50 (SNB-19): > 100 µM
TGI (SNB-19): > 100 µM
growth at 0.01 µM (SF-268): 97%
growth at 0.1 µM (NCI-H23 [9]): 90%
GI50 (MCF7): 3.57 µM
LC50 (concentration killing 50% of cells) (MCF7): > 100 µM
TGI (MCF7): 30.7 µM
growth at 1 µM (SK-MEL-2): 97%
growth at 0.01 µM (Hs-578T): 93%
growth at 0.01 µM (MDA-MB-231): 96%
growth at 100 µM (SNB-75): -32%
growth at 100 µM (T47D): -7%
growth at 100 µM (HOP-92): 11%
growth at 0.1 µM (COLO 205 [10]): 93%
growth at 0.01 µM (M14): 97%
growth at 1 µM (HCC 2998 [11]): 108%
growth at 0.1 µM (786-0 [12]): 101%
growth at 0.01 µM (OVCAR-8 [13]): 99%
GI50 (K562): 3.59 µM
LC50 (concentration killing 50% of cells) (K562): > 100 µM
TGI (K562): > 100 µM
GI50 (HCT-116 [14]): 4.17 µM
LC50 (HCT-116 [14]): > 100 µM
TGI (HCT-116 [14]): 37.8 µM
growth at 0.01 µM (UO-31): 97%
growth at 0.1 µM (TK-10): 95%
growth at 1 µM (NCI-H460): 101%

Cn1cc(C2=C(c3cn(C)c4ncccc34)C(=O)NC2=O)c2ccccc21
growth at 1 µM (MDA-MB-435): 40%
growth at 0.1 µM (SK-MEL-5): 101%
growth at 0.1 µM (NCI/ADR-RES): 96%
growth at 1 µM (HL-60(TB)): 113%
growth at 1 µM (HCT-116 [1]): 86%
growth at 100 µM (786-0 [2]): -19%
GI50 (OVCAR-3): 4.49 µM
TGI (OVCAR-3): 36.8 µM
growth at 0.01 µM (SF-539): 99%
growth at 1 µM (COLO 205 [3]): 83%
growth at 100 µM (SR [4]): -21%
growth at 100 µM (A498): -49%
growth at 100 µM (CAKI-1): -10%
growth at 1 µM (NCI-H23 [5]): 84%
GI50 (BT-549): 2.36 µM
TGI (BT-549): 8.09 µM
growth at 0.1 µM (OVCAR-8 [6]): 100%
growth at 0.1 µM (HCC 2998 [7]): 93%
growth at 0.1 µM (SR [8]): 88%
GI50 (SNB-19): 6.31 µM
TGI (SNB-19): 61.1 µM
growth at 0.01 µM (SF-268): 103%
growth at 0.1 µM (NCI-H23 [9]): 95%
GI50 (MCF7): 2.4 µM
TGI (MCF7): 29.5 µM
growth at 1 µM (SK-MEL-2): 111%
growth at 0.01 µM (Hs-578T): 91%
growth at 0.01 µM (MDA-MB-231): 99%
growth at 100 µM (SNB-75): -51%
growth at 100 µM (T47D): -11%
growth at 100 µM (HOP-92): -21%
growth at 0.1 µM (COLO 205 [10]): 109%
growth at 0.01 µM (M14): 105%
growth at 1 µM (HCC 2998 [11]): 85%
growth at 0.1 µM (786-0 [12]): 101%
growth at 0.01 µM (OVCAR-8 [13]): 105%
GI50 (K562): 2.74 µM
TGI (K562): > 100 µM
GI50 (HCT-116 [14]): 3.24 µM
TGI (HCT-116 [14]): 30.2 µM
growth at 0.01 µM (UO-31): 90%
growth at 0.1 µM (TK-10): 105%
growth at 1 µM (NCI-H460): 89%
